Measured values published in patent publication US9556229B2, “Modification of peptides using a bis(thioether)arylbridge approach” (priority 2012, dated 2017).
Starred links: 1 amine or outer side, 2 acyl side, 3 side chain; linkers in the order of their positions; H or OH if unused. Positions of bridges follow the written chain, without caps; N, C: chain ends. Non-standard residues stand in square brackets, D forms with d. Residues, ends and D or L forms follow the SMILES beside them. ξ: configuration not given here. *: point of attachment. X2 = Cc1cn([C@H]2C[C@H](n3cc(CCCC(=O)*)nn3)[C@@H](CO)O2)c(=O)[nH]c1=O; DAMPA = CN(Cc1cnc2nc(N)nc(N)c2n1)c1ccc(C(=O)*)cc1; Phe(F5) = N[C@@H](Cc1c(F)c(F)c(F)c(F)c1F)C(=O)O; Pro(4R-Bn) = O=C(O)[C@@H]1C[C@@H](Cc2ccccc2)CN1; Chlorambucil = O=C(CCCc1ccc(N(CCCl)CCCl)cc1)*; Bip = N[C@@H](Cc1ccc(-c2ccccc2)cc1)C(=O)O; Dip = N[C@H](C(=O)O)C(c1ccccc1)c1ccccc1; γGlu = O=C(O)[C@H](CCC(=O)[*:2])N[*:1]; 1Nal = N[C@@H](Cc1cccc2ccccc12)C(=O)O; 2Nal = N[C@@H](Cc1ccc2ccccc2c1)C(=O)O; oXylylene = c1ccc(C[*:2])c(C[*:1])c1; Tic = O=C(O)[C@@H]1Cc2ccccc2CN1; Cha = N[C@@H](CC1CCCCC1)C(=O)O; Cysteamide = C(CS[*:3])N[*:1]; Tle = CC(C)(C)[C@H](N)C(=O)O; ξDisc = O=C(O)C1NCc2ccccc21; N(CH2CH2)2NH = C1CN(*)CCN1; NMeA = CN[C@@H](C)C(=O)O; Ahx = NCCCCCC(=O)O

Columns and labels:
[1] = system: HCT116 colorectal cancer cells
[2] = system: MDA-MB-231 breast cancer cell line
[3] = system: MCF-7 breast cancer cell line; assay: Cell viability, MCF-7, PrestoBlue assay; assay type: cell-based; conditions: NA = not active
Procedure: To test our theory we decided to focus on Smac multimers. First, we synthesized a small library of Smac compounds (see, Tables 3 and 4) varying in position 4 substituents having general structure N-MeAla-Tle-4-(trans-Bn)-Pro-Xaa-NHCH2CH2—SH (SEQ ID NO:38), which were tested in vitro using MDA-MB-231 and MCF-7 breast cancer cell lines and PrestoBlue™ assay (Invitrogen).

SMILES | EC50 [1] [µM] | EC50 [2] [µM] | EC50 [3] [µM]
C[C@H](NC(=O)[C@H](Cc1c(F)c(F)c(F)c(F)c1F)NC(=O)[C@H](CO)NC(=O)[C@@H](N)[C@@H](C)O)C(=O)N[C@@H]1CSCc2ccccc2CSC[C@@H](C(=O)N[C@H](C)C(=O)N[C@@H](CC2CCCCC2)C(=O)N[C@@H](CO)C(=O)N2CCNCC2)NC(=O)[C@H](Cc2cccc3ccccc23)NC(=O)[C@H](Cc2ccc(O)cc2)NC1=O [ArB14Ao, Thr-Ser-PhF-Ala-Cys-Tyr-Na1-Cys-Ala-Cha-Ser-Pipz] (H-TS[Phe(F5)]A[dC]Y[1Nal]C[dA][Cha]S-{N(CH2CH2)2NH}; linker 5-8 via oXylylene; N-terminus assumed) | 83.3 |  | 
N=C(N)NCCC[C@@H](N)C(=O)N[C@@H](CCCNC(=N)N)C(=O)N[C@@H](Cc1ccc2ccccc2c1)C(=O)N[C@@H](CCCNC(=N)N)C(=O)N[C@@H]1CSCc2ccccc2CSC[C@@H](C(=O)N[C@H](CCCNC(=N)N)C(=O)N[C@@H](CC2CCCCC2)C(=O)N[C@@H](CCCNC(=N)N)C(=O)N2Cc3ccccc3C2C(N)=O)NC(=O)[C@H](Cc2cccc3ccccc23)NC(=O)[C@H](Cc2ccc(O)cc2)NC1=O (stereo partly drawn) [ArB14Bo, Arg-Arg-Na2-Arg-Cys-Tyr-Na1-Cys-Arg-Cha-Arg-DISC] (H-[dR]R[2Nal]R[dC]Y[1Nal]C[dR][Cha]R[ξDisc]-NH2; linker 5-8 via oXylylene; N-terminus assumed) | 10.7 ± 0.7 |  | 
Cc1cn([C@H]2C[C@H](n3cc(CCCC(=O)N[C@H](CCCNC(=N)N)C(=O)N[C@@H](CCCNC(=N)N)C(=O)N[C@@H](Cc4c(F)c(F)c(F)c(F)c4F)C(=O)N[C@@H](CCCNC(=N)N)C(=O)N[C@@H]4CSCc5ccccc5CSC[C@@H](C(=O)N[C@H](CCCNC(=N)N)C(=O)N[C@@H](CC5CCCCC5)C(=O)N[C@@H](CCCNC(=N)N)C(=O)N5Cc6ccccc6C5C(N)=O)NC(=O)[C@H](Cc5cccc6ccccc56)NC(=O)[C@H](Cc5ccc(O)cc5)NC4=O)nn3)[C@@H](CO)O2)c(=O)[nH]c1=O (stereo partly drawn) [ArB14Co-AZT, AZT-Arg-Arg-PhF-Arg-Cys-Tyr-Na1-Cys-Arg-Cha-Arg-DISC] (X2-[dR]R[Phe(F5)]R[dC]Y[1Nal]C[dR][Cha]R[ξDisc]-NH2; linker 5-8 via oXylylene; N-terminus assumed) | 30.2 ± 2.5 |  | 
N=C(N)NCCC[C@H](NC(=O)[C@H](Cc1c(F)c(F)c(F)c(F)c1F)NC(=O)[C@H](CCCNC(=N)N)NC(=O)[C@@H](CCCNC(=N)N)NC(=O)CCCCCNC(=O)CCCc1ccc(N(CCCl)CCCl)cc1)C(=O)N[C@@H]1CSCc2ccccc2CSC[C@@H](C(=O)N[C@H](CCCNC(=N)N)C(=O)N[C@@H](CC2CCCCC2)C(=O)N[C@@H](CCCNC(=N)N)C(=O)N2Cc3ccccc3C2C(N)=O)NC(=O)[C@H](Cc2cccc3ccccc23)NC(=O)[C@H](Cc2ccc(O)cc2)NC1=O (stereo partly drawn) [ArB14Co-CLB, CLB-Ahx-Arg-Arg-PhF-Arg-Cys-Tyr-Na1-Cys-Arg-Cha-Arg-DISC] ({Chlorambucil-Ahx}-[dR]R[Phe(F5)]R[dC]Y[1Nal]C[dR][Cha]R[ξDisc]-NH2; linker 5-8 via oXylylene) | 7.5 ± 1.1 |  | 
CN(Cc1cnc2nc(N)nc(N)c2n1)c1ccc(C(=O)N[C@@H](CCC(=O)NCCCCCC(=O)N[C@H](CCCNC(=N)N)C(=O)N[C@@H](CCCNC(=N)N)C(=O)N[C@@H](Cc2c(F)c(F)c(F)c(F)c2F)C(=O)N[C@@H](CCCNC(=N)N)C(=O)N[C@@H]2CSCc3ccccc3CSC[C@@H](C(=O)N[C@H](CCCNC(=N)N)C(=O)N[C@@H](CC3CCCCC3)C(=O)N[C@@H](CCCNC(=N)N)C(=O)N3Cc4ccccc4C3C(N)=O)NC(=O)[C@H](Cc3cccc4ccccc34)NC(=O)[C@H](Cc3ccc(O)cc3)NC2=O)C(=O)O)cc1 (stereo partly drawn) [ArB14Co-MTX, MTX-Ahx-Arg-Arg-PhF-Arg-Cys-Tyr-Na1-Cys-Arg-Cha-Arg-DISC] ({DAMPA-γGlu-Ahx}-[dR]R[Phe(F5)]R[dC]Y[1Nal]C[dR][Cha]R[ξDisc]-NH2; linker 5-8 via oXylylene) | 6.9 ± 0.4 |  | 
C[C@@H](O)[C@H](N)C(=O)N[C@@H](CO)C(=O)N[C@@H](Cc1ccccc1)C(=O)N[C@@H](CCCNC(=N)N)C(=O)N[C@@H](CCCNC(=N)N)C(=O)N[C@@H](Cc1ccc(O)cc1)C(=O)N[C@H]1CSCc2cccc(c2)CSC[C@@H](C(=O)N[C@@H](CO)C(=O)N2CCC[C@H]2C(N)=O)NC(=O)[C@H](CCCNC(=N)N)NC(=O)[C@H](CCCNC(=N)N)NC1=O [ArB14Dm] | 118 |  | 
C[C@@H](O)[C@H](N)C(=O)N[C@@H](CO)C(=O)N[C@@H](Cc1ccccc1)C(=O)N[C@@H](CCCNC(=N)N)C(=O)N[C@@H](CCCNC(=N)N)C(=O)N[C@@H](Cc1ccc(O)cc1)C(=O)N[C@H]1CS(=O)(=O)Cc2cccc(c2)CS(=O)(=O)C[C@@H](C(=O)N[C@@H](CO)C(=O)N2CCC[C@H]2C(N)=O)NC(=O)[C@H](CCCNC(=N)N)NC(=O)[C@H](CCCNC(=N)N)NC1=O [ArB14Dmx] | 142 |  | 
CC(C)C[C@H](NC(=O)[C@@H](C)NC(=O)[C@@H]1CSCc2ccccc2CSC[C@@H](NC(=O)[C@H](C)NC(=O)[C@H](Cc2ccccc2)NC(=O)[C@H](CO)NC(=O)[C@@H](N)[C@@H](C)O)C(=O)N[C@@H](Cc2ccc(O)cc2)C(=O)N[C@@H](Cc2c[nH]c3ccccc23)C(=O)N1)C(=O)N[C@@H](CO)C(=O)N1CCC[C@H]1C(N)=O [ArB14o] | 249 |  | 
CC(C)C[C@H](NC(=O)[C@H]1CSCc2ccc(cc2)CSC[C@@H](NC(=O)[C@H](C)NC(=O)[C@H](Cc2ccccc2)NC(=O)[C@H](CO)NC(=O)[C@@H](N)[C@@H](C)O)C(=O)N[C@@H](Cc2ccc(O)cc2)C(=O)N[C@@H](Cc2c[nH]c3ccccc23)C(=O)NCC(=O)N1)C(=O)N[C@@H](CO)C(=O)N1CCC[C@H]1C(N)=O [ArB15Cp] | > 250 |  | 
CN[C@@H](C)C(=O)N[C@H](C(=O)N1C[C@H](Cc2ccccc2)C[C@H]1C(=O)N[C@@H](Cc1c(F)c(F)c(F)c(F)c1F)C(=O)NCCS)C(C)(C)C [SMAC9, N^MeAla-Tle-(4-Bzl)Pro-PhF-NHCH2CH2SH] |  | 27 ± 3.2 | 19.8 ± 3
CN[C@@H](C)C(=O)N[C@H](C(=O)N1C[C@H](Cc2ccccc2)C[C@H]1C(=O)N[C@H](CC(=O)NCCS)Cc1ccccc1)C(C)(C)C [SMAC10, N^MeAla-Tle-(4-Bzl)Pro-bhPhe-NHCH2CH2SH] |  | 29.7 ± 3.3 | 23.9 ± 2.1
CN[C@@H](C)C(=O)N[C@H](C(=O)N1C[C@H](Cc2ccccc2)C[C@H]1C(=O)N1Cc2ccccc2C[C@H]1C(=O)NCCS)C(C)(C)C [SMAC11, N^MeAla-Tle-(4-Bzl)Pro-Tic-NHCH2CH2SH] (H-[NMeA][Tle][Pro(4R-Bn)][Tic]-Cysteamide; N-terminus assumed) |  | 13.3 ± 1.3 | 5.3 ± 0.6
CN[C@@H](C)C(=O)N[C@H](C(=O)N1C[C@H](Cc2ccccc2)C[C@H]1C(=O)N[C@@H](CC1CCCCC1)C(=O)NCCS)C(C)(C)C [SMAC12, N^MeAla-Tle-(4-Bzl)Pro-Cha-NHCH2CH2SH] (H-[NMeA][Tle][Pro(4R-Bn)][Cha]-Cysteamide; N-terminus assumed) |  | 10.1 ± 2.6 | 21.2 ± 2.4
CN[C@@H](C)C(=O)N[C@H](C(=O)N1C[C@H](Cc2ccccc2)C[C@H]1C(=O)NC(CC(=O)NCCS)c1cccc2ccccc12)C(C)(C)C (stereo partly drawn) [SMAC13, N^MeAla-Tle-(4-Bzl)Pro-bh^1NalGly-NHCH2CH2SH] |  | 21.7 ± 1.3 | 12.3 ± 0.5
CN[C@@H](C)C(=O)N[C@H](C(=O)N1C[C@H](Cc2ccccc2)C[C@H]1C(=O)N[C@@H](Cc1cccc2ccccc12)C(=O)NCCS)C(C)(C)C [SMAC14, N^MeAla-Tle-(4-Bzl)Pro-^1Na1-NHCH2CH2SH] (H-[NMeA][Tle][Pro(4R-Bn)][1Nal]-Cysteamide; N-terminus assumed) |  | 4.5 ± 1.1 | 13.4 ± 0.5
CN[C@@H](C)C(=O)N[C@H](C(=O)N1C[C@H](Cc2ccccc2)C[C@H]1C(=O)N[C@@H](Cc1cccc2ccccc12)C(=O)NCCSCc1cc(CSCCNC(=O)[C@H](Cc2cccc3ccccc23)NC(=O)[C@@H]2C[C@@H](Cc3ccccc3)CN2C(=O)[C@@H](NC(=O)[C@H](C)NC)C(C)(C)C)cc(CSCCNC(=O)[C@H](Cc2cccc3ccccc23)NC(=O)[C@@H]2C[C@@H](Cc3ccccc3)CN2C(=O)[C@@H](NC(=O)[C@H](C)NC)C(C)(C)C)c1)C(C)(C)C [SMAC14-3X, (N^MeAla-Tle-(4-Bzl)Pro-^1Nal-NHCH2CH2S)3—(CH2)3Ph] |  | 7.2 ± 1.5 | 120 ± 8.4
CN[C@@H](C)C(=O)N[C@H](C(=O)N1C[C@H](Cc2ccccc2)C[C@H]1C(=O)N[C@@H](Cc1ccc2ccccc2c1)C(=O)NCCS)C(C)(C)C [SMAC15, N^MeAla-Tle-(4-Bzl)Pro-^2Nal-NHCH2CH2SH] (H-[NMeA][Tle][Pro(4R-Bn)][2Nal]-Cysteamide; N-terminus assumed) |  | 9.4 ± 0.5 | 10.5 ± 0.6
CN[C@@H](C)C(=O)N[C@H](C(=O)N1C[C@H](Cc2ccccc2)C[C@H]1C(=O)N[C@H](C(=O)NCCS)C(c1ccccc1)c1ccccc1)C(C)(C)C [SMAC16, N^MeAla-Tle-(4-Bzl)Pro-Dpa-NHCH2CH2SH] (H-[NMeA][Tle][Pro(4R-Bn)][Dip]-Cysteamide; N-terminus assumed) |  | 9.4 ± 0.6 | 11.3 ± 1.8
CN[C@@H](C)C(=O)N[C@H](C(=O)N1C[C@H](Cc2ccccc2)C[C@H]1C(=O)N[C@@H](Cc1ccc(-c2ccccc2)cc1)C(=O)NCCS)C(C)(C)C [SMAC17, N^MeAla-Tle-(4-Bzl)Pro-Bip-NHCH2CH2SH] (H-[NMeA][Tle][Pro(4R-Bn)][Bip]-Cysteamide; N-terminus assumed) |  | 10.6 ± 0.9 | 5.7 ± 0.9
CN[C@@H](C)C(=O)N[C@H](C(=O)N1C[C@H](Cc2ccccc2)C[C@H]1C(=O)N[C@@H](Cc1c[nH]c2ccccc12)C(=O)NCCS)C(C)(C)C [SMAC19, N^MeAla-Tle-(4-Bzl)Pro-Trp-NHCH2CH2SH] (H-[NMeA][Tle][Pro(4R-Bn)]W-Cysteamide; N-terminus assumed) |  | 36.7 ± 3.2 | 27.6 ± 1.8
